The values below come from patent US8445503B2, “Inhibitors of polo-like kinase” (Elan Pharmaceuticals, Inc., priority 2009, dated 2013).

Molecules are shown by their SMILES.

Common to all, as to type: biochemical
One assay addresses GST-PLK1 (Homo sapiens, UniProt P53350). The experiment in a line: PLK TR-FRET peptide assay, PLK1. Conditions: read-out: Plk1 IC50. (In general: TR-FRET usually uses a lanthanide donor and a delayed reading to cut background.)
The next assay concerns the target T1, GST-PLK2 (Homo sapiens, UniProt Q9NYY3).
T1 construct: purchased CarnaBio
As to the kind of experiment: PLK TR-FRET peptide assay, PLK2. Conditions: PLK TR-FRET peptide assay, GST-PLK2; read-out: Plk2 IC50.

The next assay addresses T2, GST-PLK3 (Homo sapiens, UniProt Q9H4B4).
T2 construct: purchased CarnaBio
The experiment in a line: PLK TR-FRET peptide assay, PLK3. Conditions: PLK TR-FRET peptide assay, GST-PLK3; read-out: Plk3 IC50.

T2 sequence (Q9H4B4 whole entry): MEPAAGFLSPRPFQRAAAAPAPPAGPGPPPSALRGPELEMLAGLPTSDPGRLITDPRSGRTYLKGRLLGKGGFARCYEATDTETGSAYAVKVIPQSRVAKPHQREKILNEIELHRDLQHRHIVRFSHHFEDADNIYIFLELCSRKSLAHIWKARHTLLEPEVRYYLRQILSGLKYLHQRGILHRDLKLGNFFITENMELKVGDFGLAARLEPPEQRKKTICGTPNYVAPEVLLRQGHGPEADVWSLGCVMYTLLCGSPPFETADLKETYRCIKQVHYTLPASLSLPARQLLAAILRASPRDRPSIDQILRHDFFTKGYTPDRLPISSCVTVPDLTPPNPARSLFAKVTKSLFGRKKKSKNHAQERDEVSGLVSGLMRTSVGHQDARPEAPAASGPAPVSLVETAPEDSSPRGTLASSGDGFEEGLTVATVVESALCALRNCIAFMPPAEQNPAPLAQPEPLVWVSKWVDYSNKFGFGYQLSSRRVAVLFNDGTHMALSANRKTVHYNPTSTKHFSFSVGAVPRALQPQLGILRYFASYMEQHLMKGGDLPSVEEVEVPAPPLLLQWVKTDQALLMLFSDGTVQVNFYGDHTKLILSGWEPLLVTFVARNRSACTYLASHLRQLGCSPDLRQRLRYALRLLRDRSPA
Sequence of GST-PLK1 (P53350 whole entry): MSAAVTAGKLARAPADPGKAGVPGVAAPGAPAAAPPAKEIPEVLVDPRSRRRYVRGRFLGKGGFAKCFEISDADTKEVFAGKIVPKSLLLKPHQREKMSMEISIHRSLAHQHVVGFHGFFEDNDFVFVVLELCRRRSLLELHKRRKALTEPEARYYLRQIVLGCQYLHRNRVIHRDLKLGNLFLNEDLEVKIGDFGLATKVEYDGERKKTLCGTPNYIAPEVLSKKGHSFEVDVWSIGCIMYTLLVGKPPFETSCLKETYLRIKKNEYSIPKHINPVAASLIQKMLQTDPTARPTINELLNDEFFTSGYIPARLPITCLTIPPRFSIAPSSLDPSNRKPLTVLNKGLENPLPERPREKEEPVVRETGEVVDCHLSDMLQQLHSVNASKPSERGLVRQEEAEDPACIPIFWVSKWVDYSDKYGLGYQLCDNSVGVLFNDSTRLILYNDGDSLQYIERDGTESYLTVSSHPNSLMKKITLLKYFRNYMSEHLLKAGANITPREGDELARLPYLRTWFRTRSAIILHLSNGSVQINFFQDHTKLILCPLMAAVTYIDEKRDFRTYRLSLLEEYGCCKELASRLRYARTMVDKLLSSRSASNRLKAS
T1 sequence (Q9NYY3 whole entry): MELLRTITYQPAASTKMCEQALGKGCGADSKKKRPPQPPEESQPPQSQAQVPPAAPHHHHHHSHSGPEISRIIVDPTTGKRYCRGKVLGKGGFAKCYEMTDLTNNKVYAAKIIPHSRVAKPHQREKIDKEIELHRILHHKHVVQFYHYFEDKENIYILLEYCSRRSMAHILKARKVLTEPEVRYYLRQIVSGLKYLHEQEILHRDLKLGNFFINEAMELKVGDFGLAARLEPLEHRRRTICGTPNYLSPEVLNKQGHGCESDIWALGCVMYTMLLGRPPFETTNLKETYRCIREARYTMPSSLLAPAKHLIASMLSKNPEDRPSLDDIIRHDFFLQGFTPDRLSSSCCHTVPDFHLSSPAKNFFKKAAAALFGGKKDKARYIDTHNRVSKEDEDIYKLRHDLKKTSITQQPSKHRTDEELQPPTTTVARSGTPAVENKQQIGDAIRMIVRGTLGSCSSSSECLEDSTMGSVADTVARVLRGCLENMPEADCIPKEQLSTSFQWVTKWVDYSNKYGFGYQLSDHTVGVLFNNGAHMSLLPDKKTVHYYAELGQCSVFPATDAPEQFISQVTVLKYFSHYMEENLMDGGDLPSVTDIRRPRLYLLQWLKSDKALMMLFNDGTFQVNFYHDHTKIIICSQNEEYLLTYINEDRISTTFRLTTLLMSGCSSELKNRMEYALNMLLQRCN

In the case of `CC[C@@H]1C(=O)N(C)c2cnc(-n3ccc(=N)cc3)nc2N1C1CCCC1` [Example 73, (R)-8-cyclopentyl-7-ethyl-2-(4-iminopyridin-1(4H)-yl)-5-methyl-7,8-dihydropteridin-6(5H)-one], the values for the half-inhibitory concentration (IC50) at GST-PLK1, on GST-PLK2 and on GST-PLK3 were 10 to 50 µM, 1 to 10 µM and greater than 50 µM, respectively.

As for `CC[C@@H]1C(=O)N(C)c2cnc(-n3ccnc3Br)nc2N1C1CCCC1` [Example 65, (R)-2-(2-bromo-1H-imidazol-1-yl)-8-cyclopentyl-7-ethyl-5-methyl-7,8-dihydropteridin-6(5H)-one], the IC50 was less than 1 µM on GST-PLK1, less than 1 µM at GST-PLK2 and 10 to 50 µM on GST-PLK3.

`CC[C@]12COCCN1c1nc(-n3ccnc3-c3ccccc3)ncc1N(C)C2=O` (single isomer, unassigned) [Example 315]: the IC50 at GST-PLK1 was greater than 50 µM; at GST-PLK2, 10 to 50 µM; at GST-PLK3, greater than 50 µM.

Consider `CC[C@@]12COCCN1c1nc(-c3ccncc3-c3ccccc3)ncc1N(C)C2=O` [Example 395], for which the values for the IC50 at GST-PLK1, on GST-PLK2 and on GST-PLK3 were less than 1 µM, less than 1 µM and 1 to 10 µM, respectively.

Turning to `CC[C@@]12COCCN1c1nc(-n3ccnc3-c3ccccc3)ncc1N(C)C2=O` (single isomer, unassigned) [Example 314], the concentration for half-maximal inhibition (IC50) at GST-PLK1 was greater than 50 µM; at GST-PLK2, less than 1 µM; at GST-PLK3, 1 to 10 µM.

Consider `CC[C@@H]1C(=O)N(C)c2cnc(-n3cnc(CCN)c3)nc2N1C1CCCC1` [Example 62, (R)-2-(4-(2-aminoethyl)-1H-imidazol-1-yl)-8-cyclopentyl-7-ethyl-5-methyl-7,8-dihydropteridin-6(5H)-one], for which the half-inhibitory concentration (IC50) on GST-PLK1 is 10 to 50 µM; on GST-PLK2 it was less than 1 µM; at GST-PLK3, 10 to 50 µM.

Consider `CN1C(=O)C23CCC(CC2)N3c2nc(-n3ccnc3-c3ccccc3)ncc21` [Example 308, 5-methyl-2-(2-phenyl-1H-imidazol-1-yl)-8,9-dihydro-7H-6a,9-ethanopyrrolo[2,1-h]pteridin-6(5H)-one], for which the IC50 at GST-PLK1 is 10 to 50 µM; at GST-PLK2, 1 to 10 µM; at GST-PLK3, greater than 50 µM.

Turning to `CC[C@H]1C(=O)N(C)c2cnc(-n3ccnc3-c3ccc(F)cc3)nc2N1c1ccn(C)n1` [Example 408, (S)-7-ethyl-2-(2-(4-fluorophenyl)-1H-imidazol-1-yl)-5-methyl-8-(1-methyl-1H-pyrazol-3-yl)-7,8-dihydropteridin-6(5H)-one], the IC50 is greater than 50 µM on GST-PLK1, 1 to 10 µM on GST-PLK2 and greater than 50 µM at GST-PLK3.

Consider `CC[C@@]12COCCN1c1nc(-c3snnc3-c3ccc(F)cn3)ncc1N(C)C2=O` [Example 415, (S)-6a-ethyl-2-(4-(5-fluoropyridin-2-yl)-1,2,3-thiadiazol-5-yl)-5-methyl-6a,7,9,10-tetrahydro-[1,4]oxazino[3,4-h]pteridin-6(5H)-one], for which the IC50 was greater than 50 µM at GST-PLK1, 1 to 10 µM on GST-PLK2 and greater than 50 µM on GST-PLK3.

On to `CC[C@@H]1C(=O)N(C)c2cnc(-n3ccc(C(=O)O)n3)nc2N1C1CCCC1` [Example 56, (R)-1-(8-cyclopentyl-7-ethyl-5-methyl-6-oxo-5,6,7,8-tetrahydropteridin-2-yl)-1H-pyrazole-3-carboxylic acid], for which the half-maximal inhibitory concentration (IC50) on GST-PLK1 is 1 to 10 µM; on GST-PLK2 it was less than 1 µM; at GST-PLK3 it was 10 to 50 µM.

Turning to `CC[C@@H]1C(=O)N(C)c2cnc(-n3ccnc3-c3ccncc3)nc2N1C1CC1` [Example 147, (R)-8-cyclopropyl-7-ethyl-5-methyl-2-(2-(pyridin-4-yl)-1H-imidazol-1-yl)-7,8-dihydropteridin-6(5H)-one], the IC50 at GST-PLK1 is greater than 50 µM; at GST-PLK2, 1 to 10 µM; on GST-PLK3 it was greater than 50 µM.

With `CC[C@@H]1C(=O)N(C)c2cnc(-n3ccnc3-c3ccncc3)nc2N1C1CCOCC1` [Example 100, (R)-7-ethyl-5-methyl-2-(2-(pyridin-4-yl)-1H-imidazol-1-yl)-8-(tetrahydro-2H-pyran-4-yl)-7,8-dihydropteridin-6(5H)-one], the 50% inhibitory concentration (IC50) at GST-PLK1 is 1 to 10 µM; on GST-PLK2, less than 1 µM; on GST-PLK3 it was 1 to 10 µM.

For the molecule `CC[C@@H]1C(=O)N(C)c2cnc(-n3ccnc3-c3ccc(F)cc3)nc2N1C1COC1` [Example 328, (R)-7-ethyl-2-(2-(4-fluorophenyl)-1H-imidazol-1-yl)-5-methyl-8-(oxetan-3-yl)-7,8-dihydropteridin-6(5H)-one], the IC50 on GST-PLK1 was greater than 50 µM; at GST-PLK2 it was 1 to 10 µM; at GST-PLK3 it was greater than 50 µM.

For `CC[C@@H]1C(=O)N(C)c2cnc(-n3ccnc3-c3nccs3)nc2N1C1CCOC1` (stereo partly drawn) [Example 221, (7R)-7-ethyl-5-methyl-8-(tetrahydrofuran-3-yl)-2-(2-(thiazol-2-yl)-1H-imidazol-1-yl)-7,8-dihydropteridin-6(5H)-one], the half-maximal inhibitory concentration (IC50) was 1 to 10 µM on GST-PLK1, less than 1 µM on GST-PLK2 and 10 to 50 µM on GST-PLK3.

Regarding `CC[C@@H]1C(=O)N(C)c2cnc(-n3ncnc3-c3ccccc3)nc2N1C(C)C` [Example 195, (R)-7-ethyl-8-isopropyl-5-methyl-2-(5-phenyl-1H-1,2,4-triazol-1-yl)-7,8-dihydropteridin-6(5H)-one], the IC50 at GST-PLK1, on GST-PLK2 and at GST-PLK3 was less than 1 µM throughout.

For `CC[C@@]12CCCN1c1nc(-n3ncnc3-c3ccccc3)ncc1N(C)C2=O` [Example 189, (S)-6a-ethyl-5-methyl-2-(5-phenyl-1H-1,2,4-triazol-1-yl)-6a,7,8,9-tetrahydropyrrolo[2,1-h]pteridin-6(5H)-one], the IC50 was 1 to 10 µM at GST-PLK1, less than 1 µM on GST-PLK2 and 1 to 10 µM on GST-PLK3.

Take `CC[C@@H]1C(=O)N(C)c2cnc(-n3ccnc3-c3nccs3)nc2N1C1CCOCC1` [Example 157, (R)-7-ethyl-5-methyl-8-(tetrahydro-2H-pyran-4-yl)-2-(2-(thiazol-2-yl)-1H-imidazol-1-yl)-7,8-dihydropteridin-6(5H)-one]: the figures for the half-inhibitory concentration (IC50) at GST-PLK1, at GST-PLK2 and on GST-PLK3 were 1 to 10 µM, less than 1 µM and 10 to 50 µM, respectively.

In the case of `CC[C@H]1C(=O)N(C)c2cnc(-n3ccnc3-c3ccccc3)nc2N1c1cnn(C)c1` [Example 410, (S)-7-ethyl-5-methyl-8-(1-methyl-1-pyrazol-4-yl)-2-(2-phenyl-1H-imidazol-1-yl)-7,8-dihydropteridin-6(5H)-one], the IC50 on GST-PLK1, at GST-PLK2 and on GST-PLK3 was greater than 50 µM throughout.

For the molecule `CC[C@@H]1C(=O)N(C)c2cnc(-n3ccnc3-c3cncnc3)nc2N1C1CCCC1` [Example 159, (R)-8-cyclopentyl-7-ethyl-5-methyl-2-(2-(pyrimidin-5-yl)-1H-imidazol-1-yl)-7,8-dihydropteridin-6(5H)-one], the IC50 was less than 1 µM on GST-PLK1, less than 1 µM on GST-PLK2 and 1 to 10 µM on GST-PLK3.

`CC[C@]12COCCN1c1nc(-c3cn[nH]c3-c3nccs3)ncc1N(C)C2=O` [Example 345, (R)-6a-ethyl-5-methyl-2-(5-(thiazol-2-yl)-1H-pyrazol-4-yl)-6a,7,9,10-tetrahydro-[1,4]oxazino[3,4-h]pteridin-6(5H)-one]: the results for the IC50 on GST-PLK1, on GST-PLK2 and at GST-PLK3 were greater than 50 µM, 10 to 50 µM and greater than 50 µM, respectively.

The term IC50 denotes the concentration needed to halve the response being measured.
